How the values were obtained:
human NK1-receptor = human NK1-receptor (Homo sapiens, UniProt P25103); experiment: Binding potency of the test substances to NK1-receptors in vitro ([3H]-Substance P displacement); conditions: human NK1-receptor in CHO cell membranes, average of at least three measurements, read-out: pKi, binding potency to NK1-receptors (converted)
NK1-receptor = target: T1, NK1-receptor (Cavia porcellus, UniProt P30547); experiment: Functional NK1-receptor antagonism in aortic ring preparations isolated from guinea pigs; conditions: Substance P-induced relaxation
T1 construct: from tissue; host or cells: whole animal (Pirbright-White guinea pigs), in vivo
Procedure: 5. Determination of Functional NK1-Receptor Antagonism of Test Compounds in Tissue Isolated from Guinea Pigs.
The NK1-antagonistic action of test compounds was tested in aortic ring preparations isolated from guinea pigs. The preparations were kept in an oxygenated nutrient solution kept at 37° C. For measuring contraction of the circular vascular muscle, the preparations were fixed to a hook and connected to force displacement transducers. Contractions/relaxations were recorded on a pen recorder. The preparations were given a medium tonus by addition of phenylephrine.
Before (predrug) and after the administration of the test compound such relaxations were measured and quantified in percent of the predrug relaxation. 2-3 concentrations of the test compound were applied showing the inhibition of the receptor stimulation concentration dependently. The concentration of half-maximal inhibition (IC50) and its negative logarithm pIC50=−log(IC50) was calculated. The pIC50 value indicates the inhibitory potency of the test compounds to the NK1-receptor.

Chain of human NK1-receptor (P25103 whole entry): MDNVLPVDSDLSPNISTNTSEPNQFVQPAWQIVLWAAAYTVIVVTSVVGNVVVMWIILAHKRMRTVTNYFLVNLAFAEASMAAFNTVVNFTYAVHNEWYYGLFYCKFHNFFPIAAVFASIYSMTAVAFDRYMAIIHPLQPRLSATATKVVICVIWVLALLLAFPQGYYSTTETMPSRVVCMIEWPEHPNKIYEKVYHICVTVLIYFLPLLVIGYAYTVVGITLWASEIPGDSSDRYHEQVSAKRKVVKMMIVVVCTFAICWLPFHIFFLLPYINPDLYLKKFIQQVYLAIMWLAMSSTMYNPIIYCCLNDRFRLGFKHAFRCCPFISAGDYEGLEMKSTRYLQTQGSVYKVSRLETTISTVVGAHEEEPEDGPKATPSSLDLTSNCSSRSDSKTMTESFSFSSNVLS
T1 sequence (P30547 whole entry): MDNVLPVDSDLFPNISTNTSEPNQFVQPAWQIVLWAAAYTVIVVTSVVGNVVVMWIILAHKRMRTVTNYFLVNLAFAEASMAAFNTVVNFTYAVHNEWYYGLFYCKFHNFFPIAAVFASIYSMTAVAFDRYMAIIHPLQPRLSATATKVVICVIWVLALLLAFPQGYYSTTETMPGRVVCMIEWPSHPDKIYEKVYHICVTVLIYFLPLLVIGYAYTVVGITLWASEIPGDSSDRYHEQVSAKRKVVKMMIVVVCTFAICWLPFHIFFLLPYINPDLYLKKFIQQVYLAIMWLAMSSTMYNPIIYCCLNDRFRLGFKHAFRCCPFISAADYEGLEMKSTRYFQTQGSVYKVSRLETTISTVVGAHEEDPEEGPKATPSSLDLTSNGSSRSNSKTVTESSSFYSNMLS

Row | Ki (human NK1-receptor) [nM] | pIC50, functional NK1-antagonism on isolated guinea pig tissue (NK1-receptor) | SMILES
1 | 79.4 | – | CN(C)C(=O)C1(N2CCCCC2)CCN(CC[C@H](CN(C)C(=O)c2ccccc2)c2ccc(Cl)c(Cl)c2)CC1 [compound 1]
2 | – | 8.26 | CN(C)C(=O)C1(N2CCCCC2)CCN(CC[C@H](CN(C)C(=O)c2cc(C#N)c3ccccc3c2)c2ccc(Cl)c(Cl)c2)CC1 [compound 11]

Reference: patent US20070219214A1, “Dual NK2/NK3-antagonists, pharmaceutical compositions comprising them, and processes for their preparation” (Solvay pharmaceuticals GmbH, priority 2006, published 2007)
